# According to the SangsterLogP compilation:
# Test: method code SF-HPLC, from DOI: 10.1002/jps.2600750811, PMID: 3772750
# Conditions: not given
row,SMILES,logP
1,CC[C@H](C(=O)OCc1ccc(Cl)cc1)[C@H](COC(=O)c1ccccc1)Cc1cncn1C,4.9
2,CCC(C(=O)OCc1ccccc1)C(COC(=O)Cc1ccccc1)Cc1cncn1C (stereo unspecified),4
3,CC[C@H](C(=O)OCc1ccccc1)[C@H](COC(=O)c1ccccc1)Cc1cncn1C,4.37
4,CC[C@H](C(=O)OCc1ccccc1)[C@H](COC(=O)c1cccnc1)Cc1cncn1C,3.05

# Same assay, conditions: pH 7.4
row,SMILES,logD
1,CCCCCC(=O)OCC(Cc1cncn1C)C(CC)C(=O)OCc1ccccc1 (stereo unspecified),4.6
2,CCCC(=O)OCC(Cc1cncn1C)C(CC)C(=O)OCc1ccccc1 (stereo unspecified),3.63
3,CCCC(=O)OC[C@H](Cc1cncn1C)[C@H](CC)C(=O)OCc1ccc(C)cc1,4.19
4,CC[C@H](C(=O)OCc1ccc(C)cc1)[C@H](COC(C)=O)Cc1cncn1C,3.16
5,CC[C@H](C(=O)OCc1ccccc1)[C@H](COC(=O)c1cccc(Cl)c1)Cc1cncn1C,4.93
6,CC[C@H](C(=O)OCc1ccc(C)cc1)[C@H](COC(=O)C(C)(C)C)Cc1cncn1C,4.4
7,CC[C@H](C(=O)OCc1ccc(C)cc1)[C@H](COC(=O)c1ccccc1)Cc1cncn1C,4.7
